Data as given in PubChem BioAssay (NCI).
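Compound exposure: 48 hours, 5 concentrations, 96-well plates. GI50: concentration for 50% inhibition of growth. TGI: concentration producing complete growth inhibition.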

How the values were obtained:
Assay in all cases: NCI tumour cell line growth inhibition, 48 h
SK-MEL-5 melanoma = tested on: SK-MEL-5 melanoma
786-0 renal = tested on: 786-0 renal
A498 renal = tested on: A498 renal
SK-OV-3 ovarian = tested on: SK-OV-3 ovarian
KM12 colon = tested on: KM12 colon
OVCAR-4 ovarian = tested on: OVCAR-4 ovarian
SF-295 CNS = tested on: SF-295 CNS
BT-549 breast = tested on: BT-549 breast
PC-3 prostate = tested on: PC-3 prostate
LOX IMVI melanoma = tested on: LOX IMVI melanoma

| SMILES | GI50 (SK-MEL-5 melanoma) [µM] | TGI (SK-MEL-5 melanoma) [µM] | GI50 (786-0 renal) [µM] | TGI (786-0 renal) [µM] | GI50 (A498 renal) [µM] | TGI (A498 renal) [µM] | GI50 (SK-OV-3 ovarian) [µM] | TGI (SK-OV-3 ovarian) [µM] | GI50 (KM12 colon) [µM] | TGI (KM12 colon) [µM] | GI50 (OVCAR-4 ovarian) [µM] | TGI (OVCAR-4 ovarian) [µM] | GI50 (SF-295 CNS) [µM] | TGI (SF-295 CNS) [µM] | GI50 (BT-549 breast) [µM] | TGI (BT-549 breast) [µM] | GI50 (PC-3 prostate) [µM] | TGI (PC-3 prostate) [µM] | GI50 (LOX IMVI melanoma) [µM] | TGI (LOX IMVI melanoma) [µM] |
| --- | --- | --- | --- | --- | --- | --- | --- | --- | --- | --- | --- | --- | --- | --- | --- | --- | --- | --- | --- | --- |
| [N-]=[N+]=NCCCn1c2c(c3ccc([N+](=O)[O-])cc3c1=O)C(=O)c1cc(F)ccc1-2 | 0.803 | 3.16 | 0.334 | 2.01 | 11.8 | 72.2 | 2.82 | 19.3 | 2.13 | > 26.2 | 16.2 | > 95.7 | 0.338 | 9.94 | 5.37 | > 100 | 1.25 | 43.2 | 0.343 | 1.86 |
| O=C(NO)[C@@H](Cc1ccccc1)NS(=O)(=O)c1ccc(-c2ccccc2)cc1 | 20.6 | > 25 | 11.9 | > 25 | > 25 | > 25 | > 25 | > 25 | > 25 | > 25 | > 25 | > 25 | > 25 | > 25 | > 25 | > 25 | 7.97 | > 25 | 11.9 | > 25 |
| CC(=O)O[C@H]1[C@@H]2OC(=O)C(CSc3ccccc3)[C@@H]2C[C@H]2O[C@]2(C)CC/C=C(\C)CCC[C@@H]1C (stereo not given in full) | 2.57 | 8.65 | 2.81 | 8.29 | 2.17 | 6.37 | 13.6 | 57 | 3.58 | 14 | 2.98 | 10.9 | 3.73 | 34.6 | 1.98 | 8.84 | 2.53 | 11.1 | 3.22 | 13.9 |
| NS(=O)(=O)CC1CC[CH-]CC1.[Cl-].[Cl-].[Cl-].[Cl-].[Cl-].[Sb+5].c1ccncc1 | > 100 | > 100 | > 100 | > 100 | > 100 | > 100 | > 100 | > 100 | > 100 | > 100 | > 100 | > 100 | > 100 | > 100 | > 100 | > 100 | > 100 | > 100 | > 100 | > 100 |
| CCN(CC)C(=S)SCN1C(=O)c2ccccc2S1(=O)=O | 6.67 | > 100 | 31.4 | > 100 | 42.9 | > 100 | > 100 | > 100 | 14.4 | > 100 | 35.4 | > 100 | > 67.2 | > 100 | 63.4 | > 100 | 4.9 | > 100 | 29.5 | > 66.8 |
| COc1cc(C2=N/C(=C/c3cccs3)C(=O)O2)cc(OC)c1OC |  | > 100 |  | > 100 |  | > 100 |  | > 100 |  | > 100 |  | > 100 |  | > 100 |  | > 100 |  | > 100 |  | > 100 |
| O=C1C2CCN(CC2)C1(CO)CO |  | > 73.3 |  | 44 |  | > 79.7 |  | > 100 |  | > 93.2 |  | 43 |  | > 100 |  | 41.7 |  | > 100 |  | 36 |
